Test results taken from ChEMBL document CHEMBL1149668, “Synthesis and cytotoxicity of desmethoxycallipeltin B: lack of a quinone methide for the cytotoxicity of callipeltin B” (Bioorg Med Chem Lett, 2007).

Tested on: HeLa
Assay: Cytotoxicity against HeLa cells by MTT […] assay
Assay type: functional, cell-based
Settings: Homo sapiens

| SMILES | IC50 |
| --- | --- |
| CO[C@H](c1ccc(O)cc1)[C@H]1NC(=O)[C@H](CCC(N)=O)N(C)C(=O)[C@H](CC(C)C)NC(=O)[C@@H](CCCNC(=N)N)NC(=O)[C@@H]([C@@H](C)O)NC(=O)[C@H](NC(=O)[C@H]2NC(=O)[C@H](C)[C@@H]2C)[C@@H](C)OC(=O)[C@H](C)N(C)C1=O [CALLIPELTIN B] | 98 µM |
| CC(C)C[C@@H]1NC(=O)[C@@H](CCCNC(=N)N)NC(=O)[C@@H]([C@@H](C)O)NC(=O)[C@H](NC(=O)[C@H]2NC(=O)[C@H](C)[C@@H]2C)[C@@H](C)OC(=O)[C@H](C)N(C)C(=O)[C@@H](Cc2ccc(O)cc2)NC(=O)[C@H](CCC(N)=O)N(C)C1=O [DESMETHOXYCALLIPELTIN B] | 128 µM |
